Laboratory results: publication PMC10244880, “Chromosome-level genome assembly of Salvia miltiorrhiza with orange roots uncovers the role of Sm2OGD3 in catalyzing 15,16-dehydrogenation of tanshinones” (Horticulture Research, 2023)

Biological target: T1, Sm2OGD3 (Salvia miltiorrhiza, UniProt A0A8K1XH31)
T1 construct: gene TIIAS; full-length ORF (1119 nt, 373 aa printed) in pET-30a, E. coli BL21(DE3), crude extract
Test: UPLC / LC-MS product assay, crude recombinant E. coli extract, initial rates
Format: biochemical
Details: 2-oxoglutarate, ferrous sulfate, L-ascorbate; pH 8.0, 30 °C

T1 sequence (A0A8K1XH31 entry or part of it): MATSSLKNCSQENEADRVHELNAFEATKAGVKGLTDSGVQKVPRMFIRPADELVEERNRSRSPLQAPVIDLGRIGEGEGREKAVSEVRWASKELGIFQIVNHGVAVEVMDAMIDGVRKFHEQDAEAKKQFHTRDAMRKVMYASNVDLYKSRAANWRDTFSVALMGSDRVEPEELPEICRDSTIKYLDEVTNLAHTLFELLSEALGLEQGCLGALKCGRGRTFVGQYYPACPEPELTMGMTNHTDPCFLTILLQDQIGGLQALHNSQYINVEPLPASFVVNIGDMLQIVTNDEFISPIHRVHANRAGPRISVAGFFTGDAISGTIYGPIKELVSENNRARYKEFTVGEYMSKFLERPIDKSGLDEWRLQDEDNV

- Km: 20.9 µM
SMILES: CC1=CCCc2c1ccc1c2C(=O)C(=O)C2=C1OCC2C (stereo not shown) [THT, 1,2,15,16-tetrahydrotanshinone I]
